According to patent publication US8937050B2, “Methods and compositions for treatment of autism” (The Johns Hopkins University, priority 2011, dated 2015):

Assays:
[1] = test system: K562 cells; experiment: Flow cytometric analysis of peroxisome proliferation (PEX14); assay type: cell-based, human; conditions: eight to ten days, FIG. 1E
Protocol: Fibroblasts (70-95% confluent) were treated with 5 mM 4PBA (1 mM for JNK inhibition studies), 600 μM HU, 200 nM TSA, or 5 μM SFN unless otherwise specified.
K562 cells were incubated with 50 nM Mitotracker Green FM, 300 nM Mitotracker Deep Red 633 (Invitrogen), or PBS as a negative control for 15 min at 37° C. or stained with anti-Pex14 using Caltag Fix and Perm reagents (Invitrogen) following the manufacturer's instructions. Stained cells were suspended in 0.5 mL of 1% paraformaldehyde/PBS and subjected to flow cytometric analysis (FACScan machine, Becton Dickinson, Franklin Lakes, N.J.).
K562 cells were treated with SB and HU for four to ten days. […] (n≧3 unless otherwise noted).
To determine whether the induction of mitochondrial biogenesis by SB or HU treatment was necessary for the induction of HbF-producing cell production, K562 cells were treated with SB or HU in the presence or absence of AA. […] After two to four days of drug treatment with or without AA, mitochondrial mass was measured using Mitotracker, a mitochondrial stain. Fold change (drug treated/control) is shown. […] After four days of drug treatment with or without AA, cells were stained with DAF. […] After eight to ten days of drug treatment, peroxisome proliferation was measured using an antibody against the peroxisomal membrane protein, PEX14 and a FITC-labeled secondary antibody. […]

[2] = test system: liver of mice; conditions: 3- and 12-hours after single dose 90 mg/kg by gavage, Hu et al., 2005; cited from earlier work
[3] = test system: XALD fibroblasts; experiment: Fatty acid β-oxidation of 1-14C-labeled fatty acids; assay type: cell-based, human; conditions: XALD fibroblasts, five days; FIG. 1B
Protocol: Fatty acid β-oxidation activity in XALD fibroblasts was determined by measuring their capacity to degrade 1-^14C-labeled fatty acids to water-soluble products as described in McGuiness et al., 2003.
4PBA-induced peroxisomal VLCFA β-oxidation (degradation) is dependent on mitochondrial long chain fatty acid (LCFA) β-oxidation (McGuinness et al., 2003). […] Antimycin A (AA) is a cytochrome c reductase inhibitor that inhibits the mitochondrial electron transport chain, mitochondrial biogenesis, and thus, cellular respiration (Ranganathan et al., 2009). […] XALD fibroblasts were treated with 4PBA in the presence or absence of antimycin A (AA), a cytochrome c reductase inhibitor, for five days and β-oxidation levels of LCFA (C16:0) and VLCFA (C24:0) levels were measured.

Molecule: NC(=O)NO [HU, hydroxyurea]
- peroxisomal proliferation [1]: significantly increased

Molecule: C[S@@+]([O-])CCCCN=C=S [SFN, 1-isothiocyanato-4R-(methylsulfinyl)butane]
- Heat shock proteins and ubiquitin/26 S proteasome subunits in liver [2]: induced

Molecule: 4-phenylbutyrate [4PBA]
- LCFA (C16:0) β-oxidation [3]: induced
- VLCFA (C24:0) β-oxidation [3]: induced
